Test results as given in article PMC7778606, “Development of the phenylpyrazolo[3,4-d]pyrimidine-based, insulin-like growth factor receptor/Src/AXL-targeting small molecule kinase inhibitor” (Theranostics, 2021).

Tests used:
[1] = biological target: T1, PAK1 (Homo sapiens, UniProt Q13153); experiment: KINOMEscan competition binding assay; details: LL6 at 10 μM; read-out: Percent Control
T1 construct: purchased DiscoverX KINOMEscan
Procedure: (§1) Kd values were obtained by KINOMEscan from DiscoverX (San Diego, CA, USA). To briefly summarize, Kd was measured by a competition binding assay that quantitatively measures the ability of a compound to compete with an immobilized ligand. […] Dose response curves of 11 points are obtained for Kd values, which are measured in duplicate. See more details in the cited references [39]-[42] and see also at www.discoverx.com.

[2] = biological target: T2, JAK3(JH1domain-catalytic) (Homo sapiens, UniProt P52333); experiment: KINOMEscan competition binding assay; details: LL6 at 10 μM; read-out: Percent Control
T2 construct: JAK3(JH1domain-catalytic); purchased DiscoverX KINOMEscan
T2 sequence (P52333 822-1111 limits assumed): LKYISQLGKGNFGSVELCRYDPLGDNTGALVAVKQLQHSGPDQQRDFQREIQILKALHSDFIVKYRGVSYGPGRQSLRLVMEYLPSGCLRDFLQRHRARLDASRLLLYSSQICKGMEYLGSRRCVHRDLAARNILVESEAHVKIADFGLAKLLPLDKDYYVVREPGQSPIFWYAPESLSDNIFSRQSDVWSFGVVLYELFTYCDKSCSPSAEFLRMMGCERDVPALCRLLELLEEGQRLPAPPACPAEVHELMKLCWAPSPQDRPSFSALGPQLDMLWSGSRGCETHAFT
Procedure: as §1

[3] = biological target: T3, CSNK1D (Homo sapiens, UniProt P48730); experiment: KINOMEscan competition binding assay; details: LL6 at 10 μM; read-out: Percent Control
T3 construct: purchased DiscoverX KINOMEscan
T3 sequence (P48730 whole entry): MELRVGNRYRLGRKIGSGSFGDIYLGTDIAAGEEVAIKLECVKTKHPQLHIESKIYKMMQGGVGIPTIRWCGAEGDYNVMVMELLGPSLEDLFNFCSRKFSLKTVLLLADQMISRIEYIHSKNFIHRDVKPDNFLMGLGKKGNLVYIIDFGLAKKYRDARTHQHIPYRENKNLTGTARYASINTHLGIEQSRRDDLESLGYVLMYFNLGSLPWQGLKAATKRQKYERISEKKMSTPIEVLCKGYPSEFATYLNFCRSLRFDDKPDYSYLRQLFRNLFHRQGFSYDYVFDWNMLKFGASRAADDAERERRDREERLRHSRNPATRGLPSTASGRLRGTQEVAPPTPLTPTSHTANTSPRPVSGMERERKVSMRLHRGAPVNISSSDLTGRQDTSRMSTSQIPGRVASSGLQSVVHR
Procedure: as §1

[4] = biological target: T4, MKNK1 (Homo sapiens, UniProt Q9BUB5); experiment: KINOMEscan competition binding assay; details: LL6 at 10 μM; read-out: Percent Control
T4 construct: purchased DiscoverX KINOMEscan
T4 sequence (Q9BUB5 whole entry): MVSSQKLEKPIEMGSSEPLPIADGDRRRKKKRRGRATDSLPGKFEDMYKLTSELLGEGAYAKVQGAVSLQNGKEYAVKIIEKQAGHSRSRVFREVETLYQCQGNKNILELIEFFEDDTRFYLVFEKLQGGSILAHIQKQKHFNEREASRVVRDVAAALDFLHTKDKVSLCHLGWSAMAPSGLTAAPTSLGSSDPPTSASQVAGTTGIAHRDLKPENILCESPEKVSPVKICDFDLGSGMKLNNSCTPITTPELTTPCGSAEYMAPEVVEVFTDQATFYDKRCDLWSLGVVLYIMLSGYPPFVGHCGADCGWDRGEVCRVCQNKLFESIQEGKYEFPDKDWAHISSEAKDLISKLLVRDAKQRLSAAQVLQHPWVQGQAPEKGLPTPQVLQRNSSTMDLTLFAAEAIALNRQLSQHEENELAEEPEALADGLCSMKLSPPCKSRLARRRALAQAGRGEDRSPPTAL
Procedure: as §1

[5] = test system: H226B cells; experiment: MTT assay, viability of H226B cells; type: cell-based; details: Homo sapiens, 72 h, three days, read-out: IC50 against the viability
Procedure: (§2) Cells were seeded into 96-well plates at a density of 1-2 × 10^3 cells/well and incubated for 24 h. Cells were treated with vehicle or various concentrations of test compounds for two (PC9 and PC9/ER cells) or three (other cells) days. Cells were further incubated with MTT solution (final concentration of 500 μg/mL) for 4 h at 37 °C. The formazan products were dissolved in dimethyl sulfoxide (DMSO), and the absorbance was measured at 570 nm. The data are presented as a percentage of the control group.

[6] = test system: H1993 cells; experiment: MTT assay, viability of H1993 cells; type: cell-based; details: Homo sapiens, NCI-H1993, 72 h, three days, read-out: IC50 against the viability
Procedure: as §2

[7] = test system: H1299 cells; experiment: MTT assay, viability of H1299 cells; type: cell-based; details: Homo sapiens, NCI-H1299, 72 h, three days, read-out: IC50 against the viability
Procedure: as §2

[8] = test system: Kras^G12D/+-driven lung tumors; experiment: Mutant Kras-driven lung tumorigenesis model; type: in vivo, Kras^G12D/+ transgenic mice
Procedure: All animal experiments were performed according to protocols approved by the Seoul National University Institutional Animal Care and Use Committee. Mice were fed standard mouse chow and water ad libitum and housed in temperature- and humidity-controlled facilities with a 12-h light/12-h dark cycle. For xenograft experiments, H1944 and A549 cells (1×10^6 cells/spot, diluted in equal amounts of PBS and Matrigel) were subcutaneously injected into the right flank of 6-week-old non-obese diabetic-severe combined immunodeficiency (NOD/SCID) mice. After the tumor volume reached 50-150 mm^3, the mice were randomly grouped and treated with vehicle [10% DMSO in 60% polyethylene glycol (PEG) 400 solution] or LL6 (80 mg/kg) 6 days per week for 2 weeks. Tumor growth was determined by measuring the short and long diameters of the tumor with a caliper, and body weight was measured once or twice per week to monitor toxicity. Additionally, to evaluate the effect of LL6 on mutant Kras-driven lung tumorigenesis, 2-month-old Kras^G12D/+ transgenic mice were randomized and treated with vehicle or LL6 (80 mg/kg) for 8 weeks. The mice were euthanized, and tumor formation was evaluated and compared with that of the vehicle-treated control group. Microscopic evaluations of the H&E-stained lung tissue were also performed to measure mean tumor number (N) and volume (V) in a blinded fashion. The number and size of tumors were calculated in five sections uniformly distributed throughout each lung. In both animal experiments, the tumor volume and burden of each sample were calculated using the following formulas: Tumor volume (mm^3) = (short diameter)^2 × (long diameter) × 0.5; Tumor burden (mm^3) = number of tumors × the average of tumor volume.
Sections derived from formalin-fixed and paraffin-embedded murine lung tissues were deparaffinized by incubation overnight at 65 °C, followed by rehydration in sequential xylene and ethanol rinses. After incubation with hydrogen peroxide, the slides were washed with PBS and then incubated with 0.3% Triton X-100. The sections were incubated with blocking solution (Dako Protein Block, Dako, Glostrup, Denmark) for 30 min at room temperature after washing with PBS. The sections were further incubated with primary antibodies (pAXL, pIGF-1R, and pSrc, diluted at 1:200) overnight at 4 °C, washed with PBS several times, incubated with the corresponding biotinylated secondary antibodies (diluted at 1:500), and then washed with PBS multiple times. After adding avidin-biotin complexes (Vector Laboratories, Burlingame, CA, USA), the sections were visualized using diaminobenzidine detection reagent (Enzo Life Sciences, Farmingdale, NY, USA) and mounted with a mounting solution (Vector Laboratories).

[9] = test system: H1299/PmR cells; experiment: MTT assay, viability of pemetrexed-resistant H1299/PmR cells; type: cell-based; details: Homo sapiens, NCI-H1299, 72 h, three days, read-out: IC50 against the viability
From the text: (§3) Human lung cancer cell lines (A549, H1299, H1993, H1944, H226B, H226Br, H460, H522, HCC15, and PC9), a diploid human lung fibroblast cell line (Wi38), and the Lewis lung carcinoma (LLC) cell line were purchased from the American Type Culture Collection (ATCC, Manassas, VA, USA) or kindly provided by Dr. John V. Heymach (MD Anderson Cancer Center, Houston, TX, USA). Human retinal pigment epithelial (RPE) cells were kindly provided by Dr. Jeong Hun Kim (College of Medicine, Seoul National University, Seoul, Republic of Korea). HT-22 cells were provided by Dr. Dong Gyu Jo (College of Pharmacy, Sungkyunkwan University, Suwon, Republic of Korea). Lung cancer cells were cultured in RPMI 1640 medium supplemented with 10% fetal bovine serum (FBS) and antibiotics (Welgene, Gyeongsan-si, Republic of Korea). LLC, HT-22, and Wi38 cells were maintained in DMEM supplemented with 10% FBS and antibiotics. RPE cells were maintained in DMEM/F12 supplemented with 10% FBS and antibiotics. […]
(§4) Cells were seeded into 96-well plates at a density of 1-2 × 10^3 cells/well and incubated for 24 h. […] The formazan products were dissolved in dimethyl sulfoxide (DMSO), and the absorbance was measured at 570 nm. […]

[10] = test system: H1299/CsR cells; experiment: MTT assay, viability of cisplatin-resistant H1299/CsR cells; type: cell-based; details: Homo sapiens, NCI-H1299, 72 h, three days, read-out: IC50 against the viability
From the text: as §3, §4

[11] = test system: H226Br cells; experiment: MTT assay, viability of H226Br cells; type: cell-based; details: Homo sapiens, 72 h, three days, read-out: IC50 against the viability
Procedure: as §2

T1 sequence (Q13153 whole entry): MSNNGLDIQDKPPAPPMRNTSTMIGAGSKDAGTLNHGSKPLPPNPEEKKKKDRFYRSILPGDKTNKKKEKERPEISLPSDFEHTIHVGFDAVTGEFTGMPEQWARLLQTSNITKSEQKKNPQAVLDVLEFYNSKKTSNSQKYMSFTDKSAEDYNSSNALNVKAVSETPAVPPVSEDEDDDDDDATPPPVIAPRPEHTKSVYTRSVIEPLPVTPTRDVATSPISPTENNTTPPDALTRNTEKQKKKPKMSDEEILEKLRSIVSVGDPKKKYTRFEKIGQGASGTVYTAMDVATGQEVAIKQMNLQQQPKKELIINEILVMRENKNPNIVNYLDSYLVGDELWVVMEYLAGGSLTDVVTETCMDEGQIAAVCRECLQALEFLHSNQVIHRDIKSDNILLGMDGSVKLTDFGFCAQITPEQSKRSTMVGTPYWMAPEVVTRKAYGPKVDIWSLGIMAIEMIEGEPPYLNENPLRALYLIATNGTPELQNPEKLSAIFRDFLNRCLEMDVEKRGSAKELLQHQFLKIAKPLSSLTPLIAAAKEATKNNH

remaining binding at 10 µM [1]: 100%
remaining binding at 10 µM [2]: 100%
remaining binding at 10 µM [3]: 14%
remaining binding at 10 µM [4]: 100%
IC50 [5]: 1.37 µM
IC50 [6]: 7.79 µM
IC50 [7]: 2.93 µM
IC50 [9]: 1.62 µM
IC50 [10]: 1.07 µM
IC50 [11]: 4.32 µM
Structure (SMILES): Nc1ncnc2c1c(-c1ccc(Cl)cc1)nn2CCn1cc(COc2ccc(Nc3nccc(Nc4cnc5ccccc5c4)n3)cc2)nn1 [LL6]
tumor volume and burden ([8]; 80 mg/kg for 8 weeks): Substantial decreases
lung tumor nodules (multiplicity) ([8]; 80 mg/kg for 8 weeks, especially nodules > 1 mm^3): significantly decreased
body weight ([8]; 80 mg/kg for 8 weeks, vs vehicle): no detectable difference
levels of pIGF-1R, pSrc, and pAXL in lung tumors ([8]; immunohistochemistry, 80 mg/kg, vs vehicle): significantly decreased levels
